Reference: patent US11219670B2, “Targeting CAPN9/CAPNS2 activity as a therapeutic strategy for the treatment of myofibroblast differentiation and associated pathologies” (The Johns Hopkins University, priority 2014, dated 2022)
Where a SMILES comes first, the peptide text is derived from it. The star is where a group is joined. Cbz = O=C(OCc1ccccc1)*; Boc = CC(C)(C)OC(=O)*

T1: Human recombinant mini-CAPN9 (Homo sapiens, UniProt O14815)
T1 construct: made in house; host or cells: E. coli
T1 sequence (O14815 42-337 limits assumed): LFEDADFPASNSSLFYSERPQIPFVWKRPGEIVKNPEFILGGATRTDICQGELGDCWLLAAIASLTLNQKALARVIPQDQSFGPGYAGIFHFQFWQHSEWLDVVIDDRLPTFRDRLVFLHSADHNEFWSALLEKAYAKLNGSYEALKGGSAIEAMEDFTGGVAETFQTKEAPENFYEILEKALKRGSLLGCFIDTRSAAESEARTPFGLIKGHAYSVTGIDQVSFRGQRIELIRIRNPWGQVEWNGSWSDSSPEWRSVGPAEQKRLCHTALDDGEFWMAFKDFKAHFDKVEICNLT


Legend:
[1] = system: NMuMG cells; test: TGFβ1-induced EpMT in NMuMG cells (αSMA western blot, qPCR, immunofluorescence); format: cell-based, Mouse; details: western blot
Procedure: (FIG. 1B; Levels were normalized to the 72 h TGFβ1 only treated sample for each blot. Students t-test *p<0.05, **p<0.01, † p<0.005, †† p<0.001). […] (FIG. 1H; Levels were normalized to the 72 h TGFβ1 only treated sample for each blot. Students t-test *p<0.05, **p<0.01, † p<0.005, †† p<0.001). FIG. 1G and FIG. 1H show the small molecule […] SB431542 suppressed TGFβ-induced calpain activity (as measured by cleavage of Filamin A, a known calpain substrate) and TGFβ-induced phosphorylation of SMAD2, as measured by western blot (FIG. 1H) and quantified western blot data done in biological replicates (FIG. 1H; Levels were normalized to the 72 h TGFβ1 only treated sample for each blot. Student's t-test *p<0.05, **p<0.01, † p<0.005, †† p<0.001).). […] NMuMG cells pretreated with TGFβ1 for 72 hours to induce EMT, and then treated with calpain inhibitor MDL-28170 while in the continued presence of TGFβ1 for an additional 48 h or 72 h post-induction, can revert to a more epithelial phenotype as assessed by αSMA expression by western blot (FIG. 1I) and quantified western blot data done in biological replicates (FIG. 1J; Levels were normalized to TGFβ1 only treated samples within each time point. Students t-test *p<0.05).
Calpain inhibition was also found to suppress TGFβ-induced expression of genes commonly and functionally associated with fibrosis, such as collagen 1A1, vimentin and matrix metalloproteinase 2/9 (FIG. 1C). A profound decrease in E-cadherin, a cell surface protein highly expressed by epithelial cells, was observed by immunofluorescence upon stimulation with TGFβ but was prevented by treatment with calpain inhibitor MDL-28170 (FIG. 1D). […] (FIG. 1F). […]

[2] = system: phosphorylation of SMAD2; test: TGFβ-induced phosphorylation of SMAD2 in NMuMG cells (western blot); format: cell-based, Mouse
Procedure: (§1) (FIG. 1B; Levels were normalized to the 72 h TGFβ1 only treated sample for each blot. Students t-test *p<0.05, **p<0.01, † p<0.005, †† p<0.001). […] (FIG. 1H; Levels were normalized to the 72 h TGFβ1 only treated sample for each blot. Students t-test *p<0.05, **p<0.01, † p<0.005, †† p<0.001).

[3] = system: calpain activity (cleavage of Filamin A); test: TGFβ-induced calpain activity in NMuMG cells (cleavage of Filamin A, western blot); format: cell-based, Mouse
Procedure: as §1

[4] = target: T1, Human recombinant mini-CAPN9; test: Biochemical assay for calpain 9 inhibition (FRET peptide substrate, FLIPR); details: IC50 by 4 parameter logistic fitting; 10 min preincubation; ambient temperature
Procedure: Human recombinant mini-CAPN9 was expressed in E. coli and purified as described in Davis, T. L., et al. (2007) J Mol Biol 366(1): 216-229.
All enzyme reactions are run at ambient temperature (˜25° C.) in black 384 well assay plates. Inhibitors solutions in DMSO are typically semi-log serially diluted prior to further dilution in assay buffer (Tris-HCl 20 mM, KCl 100 mM, BSA 0.1%, 1 mM DTT). Calpain enzyme stocks are diluted in assay buffer without Ca (II) just prior to use (1 μM) and incubated with serially diluted test compounds at 2× concentrations in the assay plate for 10 min.
After the compound preincubation, the FLIPR liquid handler is used to initiate the reaction by adding a 2× mix of substrate (1 μM Calpain FRET peptide substrate (5-FAM/QXL 520) Anaspec (Catalog# AS-72149)) and Ca (II) (10 mM). Reactions are measured using a FLIPR Tetra reader (Molecular Devices Inc).
Slopes (reaction rates) are calculated within the 0-2 min interval using the ScreenWorks software (Molecular Devices Inc). Slopes are plotted versus test compound concentration to obtain dose-response curves. IC50 values are obtained using 4 parameter logistic fitting.

[5] = system: Primary Normal Human Lung Fibroblasts (NHLF); test: TGFβ1-induced FMT in NHLF cells (αSMA western blot); format: cell-based
From the text: Resident fibroblasts have also been described to undergo transformation in the presence of high TGFβ. Using Primary Normal Human Lung Fibroblasts (NHLF), it was shown that treatment with calpain inhibitor MDL-28170 (FIG. 8A and FIG. 8B) or siRNA mediated knockdown of CAPNS2 (FIG. 8C) can inhibit TGFβ1-induced FMT as measured by αSMA.

[6] = system: PAVEC; test: TGFβ1-induced EnMT in PAVEC (qPCR, immunofluorescence); format: cell-based
From the text: (FIG. 7B; E-cadherin shown in green, vimentin shown in red, DAPI nuclear marker shown in blue. Scale bar=100 μm). […] Scale bar=100 μm);
Myofibroblasts can derive from cell types other than those of epithelial origin, including endothelial cells and fibroblasts. […] (FIG. 7B). Overexpression of calpastatin inhibits TGFβ1-induced EnMT in PAVEC as measured from gene expression of αSMA, vimentin, E-cadherin, MMP2 and MMP9 (FIG. 7C) and inhibits morphological changes associated with EnMT, such as downregulation of E-cadherin/cell-cell adhesion and upregulation of vimentin. (FIG. 7D).

Molecule | TGFβ1-induced EpMT as measured by αSMA expression [1] | TGFβ-induced phosphorylation of SMAD2 [2] | TGFβ-induced calpain activity (cleavage of Filamin A) [3] | IC50 [4] [µM] | also measured
NCCOB(c1ccccc1)c1ccccc1 [2-APB, 2-aminoethoxydiphenyl borate] | able to inhibit TGFβ1-induced αSMA expression at high doses | without significantly affecting | suppressed | – | –
O=C1Nc2ccc([N+](=O)[O-])cc2C1=O [5-Nitroisatin] | – | – | – | 42.3 | –
CC(C)[C@H](NC(=O)CNC(=O)OC(C)(C)C)C(=O)N[C@H](C=O)C(C)C [Boc-Gly-Val-Val-CHO] (Boc-Gly-Val-Val-aldehyde) | – | – | – | 6.68 | –
CSCC[C@@H](C=O)NC(=O)[C@H](CC(C)C)NC(=O)[C@H](CC(C)C)NC(C)=O [Calpain Inhibitor II (ALLM)] (Ac-Leu-Leu-Met-aldehyde) | – | – | – | 3.32 | –
CC(C)C[C@@H](C=O)NC(=O)[C@@H](NS(=O)(=O)c1ccc(F)cc1)C(C)C [Calpain Inhibitor IV SJA-6017] | – | – | – | 2.23 | –
CCCC[C@@H](C=O)NC(=O)[C@H](CC(C)C)NC(=O)OCc1ccccc1 [Calpeptin] | suppresses | without significantly affecting | suppressed | 2.84 | –
CC(C)CCNC(=O)[C@H](CC(C)C)NC(=O)[C@H]1O[C@@H]1C(=O)O [E-64-C] | – | – | – | 35.8 | –
CC(C)C[C@H](NC(=O)[C@H]1O[C@@H]1C(=O)O)C(=O)NCCCCNC(=N)N [E-64] | – | – | – | 11.6 | –
C=CC[C@@H]1/C=C(\C)C[C@H](C)C[C@H](OC)[C@H]2O[C@@](O)(C(=O)C(=O)N3CCCC[C@H]3C(=O)O[C@H](/C(C)=C/[C@@H]3CC[C@@H](O)[C@H](OC)C3)[C@H](C)[C@@H](O)CC1=O)[C@H](C)C[C@@H]2OC [FK506, tacrolimus] | able to potently suppress | – | – | – | –
CC(=O)N[C@@H](CC(C)C)C(=O)N[C@@H](CC(C)C)C(=O)N[C@H](C=O)CCCNC(=N)N [Leupeptin Hemisulfate] | – | – | – | 9.24 | –
CC(C)C[C@@H](C=O)NC(=O)[C@H](CC(C)C)NC(=O)[C@H](CC(C)C)NC(=O)OCc1ccccc1 [MG-132] (Cbz-Leu-Leu-Leu-aldehyde) | – | – | – | 9.88 | –
CCC(C)[C@H](NS(=O)(=O)c1cccc2ccccc12)C(=O)N[C@H](C=O)Cc1c[nH]c2ccccc12 (stereo partly drawn) [NapSul-Ile-Trp-CHO] | – | – | – | 6.25 | –
NC(=O)c1ccc(-c2nc(-c3ccc4c(c3)OCO4)c(-c3ccccn3)[nH]2)cc1 [SB431542] | did not show | did not show | did not show | – | –
CC(C)C[C@@H](C=O)NC(=O)[C@H](CC(C)C)NC(=O)OCc1ccccc1 [Z-Leu-Leu-CHO] | – | – | – | 2.35 | –
NS8593 | able to potently inhibit | without significantly affecting | suppressed | – | TGFβ1-induced FMT as measured by αSMA [5]: able to suppress
calpastatin: endogenous calpain inhibitor, mouse calpastatin overexpressed from a bicistronic vector with GFP (protein, UniProt P51125 1-788, looked up, co-expressed with GFP) Calpastatin: MSQPGPKPAASPRPSRGAAARHTQEHVNEKNIGSSSKPGEKKGSDEKKAASLGSSQPSRPHVGEAATATKVTASSAATSKSPSMSTTETKAIPVNKQLEGPDQKRPREQAVKTESKKPQSSEQPVVHEKKSKGGPKEGSEPKNLPKHTSSTGSKHAHKEKALSRSNEQMVSEKPSESKTKFQDVPSAGGESVAGGGTVATALDKVVGKKKEQKPFTPASPVQSTPSKPSDKSGMDAALDDLIDTLGGHEDTNRDDPPYTGPVVLDPMYSTYLEALGIKEGTIPPEYRKLLEKNEGITQPLPDSPKPMGTDQAIDALSSDFTCSSPTGKQSEKEKSTGEIFKAQSAGVTRSSVPPKEKKRKVEEEVINDQALQALSDSLGTRQPDPPSHVSQAEQVKEAKAKEERQEKCGEDEDTVPAEYRLKPAKDKDGKPLLPEPEETSKSLSESELIGELSADFDRSTYQDKPSTPAEKKSNDTSQTPPGETVPRASMCSIRSAPPKLASLKGVVPEDAVETLAGSLGTREADPEHEKTVEDKVKEKAKEEEHEKLGEKEETVPPDYRLEEVKDKDGKPLLPKESQEQLAPLSDDFLLDALSQDFSSPANISSLEFEDAKLSAAISEVVSQTPAPSTHAAAPLPGTEQKDKELDDALDELSDSLGQRPPDPDENKPLDDKVKEKIKPEHSEKLGERDDTIPPEYRHLLDNDGKDKPEKPPTKKTEKPDQDRDPIDALSEDLDSCPSTTETSKNTAKGKSKKTSSSKASKDGEKTKDSSKKTEEVSKPKAKEDARHS | virtually no αSMA protein | without affecting | suppressed | – | morphological changes associated with EnMT (downregulation of E-cadherin/cell-cell adhesion, upregulation of vimentin) ([6]; immunofluorescence): inhibits; TGFβ1-induced EnMT as measured from gene expression of αSMA, vimentin, E-cadherin, MMP2 and MMP9 ([6]; quantitative PCR): inhibits
